Laboratory results from patent publication US9856210B2, “Pharmaceutical composition for prevention and treatment of amyotrophic lateral sclerosis” (Kyoto University, priority 2010, dated 2018).

What was measured:
SOD1 = assay: Western blotting of intracellular SOD1 in iPS cell-derived astrocytes; format: cell-based, human; settings: astrocytes from ALS patient iPS cells; 1 μM, 3 μM, 10 μM and 30 μM; 48 hours; β-actin internal standard (FIG. 3D)
Method: A 4-mm skin biopsy was cultured for 3 weeks, and the resulting cells in culture were used as the fibroblasts derived from an ALS patient.
Human cDNAs for KLF4, Sox2, Oct3/4 and c-Myc were transferred to the above-described fibroblasts using a retrovirus, as described by Takahashi K et al. in Cell 131(5), 861, 2007. On day 6 after the gene transfer, the fibroblasts were transferred onto SNL feeder cells. The following day, the medium was replaced with a primate ES cell culture broth supplemented with 4 ng/ml of bFGF (Wako). The medium was exchanged every two days; 30 days after the gene transfer, colonies were picked up.
Neurospheres were formed by a slightly modified version of the method described by Wada T et al. in PLoS ONE 4(8), e6722, 2009. […]
The iPS cell-derived astrocytes were seeded to a 6-well plate at a density of 250,000 cells/well. […] After the incubation, the amount expressed was detected by ECL (Enhanced ChemiLuminescence) using an HRP-linked anti-rabbit IgG antibody (1:5000; GE healthcare) and an HRP-linked anti-mouse IgG antibody (1:5000; GE healthcare).

human SOD1 (hSOD1) mRNA = assay: Human SOD1 mRNA in spinal cord of human SOD1 (G93A) transgenic mice (PCR); format: in vivo, mouse; settings: 60 mg/kg/day oral, 5 days a week for 4 weeks, vs solvent control; relative to β-actin (FIG. 4)
Method: (§1) To 8-week-old human SOD1 (G93A) transgenic mice (The Jackson Laboratory) were orally administered sorafenib (60 mg/kg/day) dissolved in 95% ethanol and Cremophol EL or solvent alone as a control, each to 3 mice, 5 days a week for 4 weeks. After administration, the spinal cord was removed. Total RNA was extracted and human and mouse SOD1 mRNA amounts were measured by PCR.

mouse SOD1 (mSOD1) mRNA = assay: Mouse SOD1 mRNA in spinal cord of human SOD1 (G93A) transgenic mice (PCR); format: in vivo; settings: 60 mg/kg/day oral, 5 days a week for 4 weeks, vs solvent control; relative to β-actin (FIG. 4)
Method: as §1

CNC(=O)c1cc(Oc2ccc(NC(=O)Nc3ccc(Cl)c(C(F)(F)F)c3)cc2)ccn1 [sorafenib]
expression of SOD1 (western blotting) (SOD1): a reduction in the expression of SOD1 was observed
human SOD1 mRNA amount in spinal cord (human SOD1 (hSOD1) mRNA): significantly decreased
mouse SOD1 mRNA amount in spinal cord (mouse SOD1 (mSOD1) mRNA): significantly decreased
